{"source": "patent US20150368195A1", "about": "“INDOLINE COMPOUNDS FOR TREATMENT AND/OR PREVENTION OF INFLAMMATION DISEASES” (Taipei Medical University, priority 2014, published 2015)", "key": {"RAW264.7 macrophages": {"test_system": "RAW264.7 macrophages", "experiment": "M-CSF/RANKL-induced osteoclast formation", "type": "cell-based, Mouse", "details": "5 nM MPT0G009 or 50 nM SAHA; M-CSF/RANKL 50 ng/mL, 5 days", "procedure": "Cells were then tartrate resistant acid phosphatase (TRAP) stained, and the numbers of TRAP-positive multinuclear cells were counted. […] Images are at ×100 magnification, and the arrows indicate differentiated osteoclasts. (FIG. 6C) RAW264.7 cells were treated as in (FIG. 6B), then incubated with a fluorescein isothiocyanate (FITC)-conjugated anti-CD51/61 antibody and analyzed by flow cytometry. (FIGS. 6D and 6E) RAW264.7 cells (1×10^5) were transfected with 1 μg of pGL4.32[luc2P/NF-κB-RE/Hygro] (FIG. 6D) or pGL4.30[luc2P/NFAT-RE/Hygro] (FIG. 6E) for 24 h and then incubated for 30 min with or without MPT0G009 (5 nM). Then RANKL (50 ng/mL) was added and incubation was continued for an additional 24 h, after which luciferase activity was determined. Results in (FIGS. 6A, 6D, and 6E) are the means±SEM's for three independent experiments. **p<0.01 compared with the indicated controls.\nBone destruction is one characteristic of RA pathogenesis, resulting in joint dysfunction. Differentiation of mouse macrophages osteoclast-like cells can be induced in the presence of M-CSF and RANKL, which has been used as a model to investigate osteoclast differentiation. […] Subsequently, multinucleate tartrate resistant acid phosphatase (TRAP)-positive cells were counted."}, "[1]": {"test_system": "inducible nitric oxide synthase (iNOS)", "experiment": "LPS-induced iNOS protein expression, Western blot, RAW264.7", "type": "cell-based, Mouse", "details": "RAW264.7, 0.1-10 μM, LPS 25 ng/mL 24 h", "procedure": "Then the cells were harvested and whole cell extracts were prepared for Western blot analysis for iNOS and COX-2. The relative protein expressions are presented as mean±SEM for four replicates. *p<0.05 compared to the LPS-treated group."}, "[2]": {"test_system": "adjuvant-induced arthritis", "experiment": "adjuvant-induced arthritis (AIA) model", "details": "MPT0G009 25 mg/kg", "description": "(FIG. 8B) Hind paw volumes in the indicated group of rats were measured using a digital plethysmometer on the indicated day after AIA induction. […] (FIG. 8D) Serum levels of interleukin (IL)-1β (left panel) and IL-6 (right panel) on day 21 as measured by enzyme-linked immunosorbent assay (ELISA). […] (FIG. 8F) The bone mineral density (BMD, in mg/mm^3) and the bone mineral content (BMC, in mg) values for the bone tissue of the tarsus were analyzed using CT Analysis Software."}, "CTGF": {"test_system": "CTGF", "experiment": "pro-fibrogenic mediator-induced CTGF production, Western blot", "type": "cell-based, human", "details": "WI-38 lung fibroblasts", "procedure": "Western blot analysis was performed. First, WI-38 lung fibroblasts were incubated with different concentrations of MPT0E028 (0.01, 0.03, 0.1, 0.3, or 1 μM) (FIG. 10A) or MPT0G009 (0.01, 0.03, 0.1, 0.3, or 1 μM) (FIG. 10B) for 30 min before and during incubation for 2 h with TGF-β (10 ng/mL). WI-38 lung fibroblasts were incubated with 1 μM MPT0E028 and MPT0G009 for 30 min and following another incubation for 2 h with 1 U/ml thrombin (FIG. 10C) and 10 nM ET-1 (FIG. 10D). The collagen I production from WI-38 lung fibroblasts stimulated by 10 ng/mL TGF-β for 24 h was inhibited with 1 μM MPT0E028 and MPT0G009 pretreatment (FIG. 10E).\nWI-38 cells, a normal human embryonic lung fibroblast cell line, were obtained from American Type Culture Collection (Manassas, Va.). Cells were grown in MEM nutrient mixture, containing 10% FCS, 2 mM L-glutamine, 0.1 mM NEAA, 1 mM sodium pyruvate, 50 U/ml penicillin G, and 100 μg/ml streptomycin, in a humidified 37° C. incubator with 5% CO2 Cells were used between passages 18 and 30 for all experiments. After reaching confluence, cells were seeded onto 6-cm dishes for immunoblotting.\nWestern blot analyses were performed as described previously (Chen B C, Chang Y S, Kang J C, Hsu M J, Sheu J R, Chen T L, et al. Peptidoglycan induces nuclear factor-kappaB activation and cyclooxygenase-2 expression via Ras, Raf-1, and ERK in RAW 264.7 macrophages. J Biol Chem 2004; 279:20889-97). Briefly, WI-38 lung fibroblasts were cultured in 6-cm dishes. After reaching confluence, cells were pretreated with specific inhibitors (E028 and G009) as indicated for 30 min, and then treated with the vehicle (H2O) or 10 ng/ml TGF-β for 2 h (CTGF assay) or 24 h (collagen I assay). Whole-cell lysates ([…]) were subjected to 12% (CTGF) or 8% (collagen I) SDS-PAGE, and transferred onto a polyvinylidene difluoride membrane which was then incubated in TBST buffer (150 mM NaCl, 20 mM Tris-HCl, and 0.02% Tween 20; pH 7.4) containing 5% BSA. Proteins were visualized by specific primary antibodies and then incubated with HRP-conjugated secondary antibodies. The immunoreactivity was detected using enhanced chemiluminescence (ECL) following the manufacturer's instructions. Quantitative data were obtained using a computing densitometer with scientific imaging systems (Kodak, Rochester, N.Y.).\nTo determine whether the inhibitory effects of MPT0E028 and MPT0G009 on pro-fibrogenic mediators (TGF-β, thrombin, and ET-1) were related to the modulation of CTGF and Collagen I production, Western blot analysis was performed. First, WI-38 lung fibroblasts were incubated with different concentrations of MPT0E028 (0.01, 0.03, 0.1, 0.3, or 1 μM) (FIG. 10A) or MPT0G009 (0.01, 0.03, 0.1, 0.3, or 1 μM) (FIG. 10B) for 30 min before and during incubation for 2 h with TGF-β (10 ng/mL). […] Furthermore, we examined the effects of MPT0E028 and MPT0G009 on other pro-fibrogenic mediators. As shown in FIGS. 10C and 10D, WI-38 lung fibroblasts were incubated with 1 μM MPT0E028 and MPT0G009 for 30 min and following another incubation for 2 h with 1 U/ml thrombin (FIG. 10C) and 10 nM ET-1 (FIG. 10D)."}, "[3]": {"experiment": "maximum tolerated dose (MTD)", "type": "in vivo", "details": "for Lethality / Change of body weight Day 7 / Change of body weight Day 14 / Change of body weight Day 21: qd × 7; for Change of body weight Day 7 / Change of body weight Day 14 / Change of body weight Day 21: mean ± SEM"}, "[4]": {"details": "day 21, ELISA, SAHA 200 mg/kg, indomethacin 1 mg/kg"}, "[5]": {"details": "oral daily days 2 to 21, SAHA 200 mg/kg, indomethacin 1 mg/kg, vs vehicle"}}, "note": "Entries after “also recorded” stand apart in the source; their conditions may differ."}
{"smiles": "COc1ccc(S(=O)(=O)N2CCc3cc(C=CC(=O)NO)ccc32)cc1", "note": "[Compound 9, 3-[1-(4-methoxybenzenesulfonyl)-2,3-dihydro-1H-indol-5-yl]-N-Hydroxyacrylamide]", "values": [{"measurement": "expression of osteoclast-specific marker CD51/61", "setting": "RAW264.7 macrophages", "value": "significantly inhibited"}, {"measurement": "formation of M-CSF/RANKL-induced TRAP-positive cells", "setting": "RAW264.7 macrophages", "value": "significantly inhibited; also recorded: inhibits"}, {"measurement": "iNOS protein expression", "setting": "[1]", "value": "concentration-dependently inhibitory effects"}, {"measurement": "iNOS protein expression", "setting": "[1]; listed as compound 9", "value": "significantly inhibited"}, {"measurement": "bone destruction (micro-computed tomography)", "setting": "[2]", "value": "ameliorated"}, {"measurement": "bone mineral density (BMD) and bone mineral content (BMC)", "setting": "[2]", "value": "prevented the decrease"}, {"measurement": "cartilage degradation (safranin O staining of ankle joints)", "setting": "[2]", "value": "markedly reduced"}, {"measurement": "decrease of osteoblasts", "setting": "[2]", "value": "apparently ameliorated"}, {"measurement": "formation of osteoclasts (TRAP stain)", "setting": "[2]", "value": "significantly decreased"}, {"measurement": "leukocyte infiltration, synovitis (hematoxylin and eosin staining)", "setting": "[2]", "value": "significantly reduced"}, {"measurement": "levels of acetyl-histone H3 (immunohistochemical staining)", "setting": "[2]", "value": "increased levels"}, {"measurement": "synoviocytes proliferation and inflammation (KI-67, COX-2 staining)", "setting": "[2]; 25 mg/kg", "value": "inhibition; also recorded: suppresses"}, {"measurement": "serum levels of IL-1β", "setting": "[2]; [4]", "value": "significant decreases"}, {"measurement": "serum levels of IL-6", "setting": "[2]; [4]", "value": "significant decreases"}, {"measurement": "arthritis scores", "setting": "[2]; day 21, SAHA 200 mg/kg, indomethacin 1 mg/kg, vs vehicle", "value": "significant reductions"}, {"measurement": "paw swelling", "setting": "[2]; [5]", "value": "significant reductions"}, {"measurement": "paw volume", "setting": "[2]; [5]", "value": "significant reductions"}, {"measurement": "ET-1-induced CTGF expression", "setting": "CTGF; 1 μM, 10 nM ET-1 2 h", "value": "inhibited"}, {"measurement": "thrombin-induced CTGF expression", "setting": "CTGF; 1 μM, 1 U/ml thrombin 2 h", "value": "inhibited"}, {"measurement": "TGF-β-induced CTGF production", "setting": "CTGF; 0.01-1 μM, TGF-β 10 ng/mL 2 h", "value": "significantly inhibited"}, {"measurement": "Lethality", "setting": "[3]; 250 mg/kg po", "value": 0, "unit": "%"}, {"measurement": "Change of body weight Day 7", "setting": "[3]; 250 mg/kg po", "value": "+8.7 ± 0.5%"}, {"measurement": "Change of body weight Day 14", "setting": "[3]; 250 mg/kg po", "value": "+17.0 ± 0.4%"}, {"measurement": "Change of body weight Day 21", "setting": "[3]; 250 mg/kg po", "value": "+22.6 ± 0.6%"}, {"measurement": "Lethality", "setting": "[3]; 500 mg/kg po", "value": 0, "unit": "%"}, {"measurement": "Change of body weight Day 7", "setting": "[3]; 500 mg/kg po", "value": "+1.6 ± 0.3%"}, {"measurement": "Change of body weight Day 14", "setting": "[3]; 500 mg/kg po", "value": "+16.5 ± 0.6%"}, {"measurement": "Change of body weight Day 21", "setting": "[3]; 500 mg/kg po", "value": "+24.0 ± 0.9%"}, {"measurement": "Lethality", "setting": "[3]; 1000 mg/kg po", "value": 0, "unit": "%"}, {"measurement": "Change of body weight Day 7", "setting": "[3]; 1000 mg/kg po", "value": "+4.4 ± 0.6%"}, {"measurement": "Change of body weight Day 14", "setting": "[3]; 1000 mg/kg po", "value": "+12.0 ± 0.7%"}, {"measurement": "Change of body weight Day 21", "setting": "[3]; 1000 mg/kg po", "value": "+15.3 ± 0.8%"}, {"measurement": "adverse effects", "setting": "[3]; mice, dosage of up to 1000 mg/kg/day, within three weeks", "value": "No significant adverse effects"}]}
